Measured values: article doi:10.1101/2024.08.13.607785v1 (biorxiv, 2024)
Where two headings read alike, the source gives them in different places. Values belong to the molecule of their own block, whether it stands above or below them.

Tests used:
[1] = target: Mitogen-activated protein kinase kinase kinase kinase 2 ; MAP4K2 ; Q12851 (Homo sapiens, UniProt Q12851); assay: biochemical; parameters: species or system human cell line lysate
[2] = target: T1, Cyclin-G-associated kinase ; GAK ; O14976 (Homo sapiens, UniProt O14976); assay: biochemical; parameters: species or system human cell line lysate
T1 sequence (O14976 1-1311): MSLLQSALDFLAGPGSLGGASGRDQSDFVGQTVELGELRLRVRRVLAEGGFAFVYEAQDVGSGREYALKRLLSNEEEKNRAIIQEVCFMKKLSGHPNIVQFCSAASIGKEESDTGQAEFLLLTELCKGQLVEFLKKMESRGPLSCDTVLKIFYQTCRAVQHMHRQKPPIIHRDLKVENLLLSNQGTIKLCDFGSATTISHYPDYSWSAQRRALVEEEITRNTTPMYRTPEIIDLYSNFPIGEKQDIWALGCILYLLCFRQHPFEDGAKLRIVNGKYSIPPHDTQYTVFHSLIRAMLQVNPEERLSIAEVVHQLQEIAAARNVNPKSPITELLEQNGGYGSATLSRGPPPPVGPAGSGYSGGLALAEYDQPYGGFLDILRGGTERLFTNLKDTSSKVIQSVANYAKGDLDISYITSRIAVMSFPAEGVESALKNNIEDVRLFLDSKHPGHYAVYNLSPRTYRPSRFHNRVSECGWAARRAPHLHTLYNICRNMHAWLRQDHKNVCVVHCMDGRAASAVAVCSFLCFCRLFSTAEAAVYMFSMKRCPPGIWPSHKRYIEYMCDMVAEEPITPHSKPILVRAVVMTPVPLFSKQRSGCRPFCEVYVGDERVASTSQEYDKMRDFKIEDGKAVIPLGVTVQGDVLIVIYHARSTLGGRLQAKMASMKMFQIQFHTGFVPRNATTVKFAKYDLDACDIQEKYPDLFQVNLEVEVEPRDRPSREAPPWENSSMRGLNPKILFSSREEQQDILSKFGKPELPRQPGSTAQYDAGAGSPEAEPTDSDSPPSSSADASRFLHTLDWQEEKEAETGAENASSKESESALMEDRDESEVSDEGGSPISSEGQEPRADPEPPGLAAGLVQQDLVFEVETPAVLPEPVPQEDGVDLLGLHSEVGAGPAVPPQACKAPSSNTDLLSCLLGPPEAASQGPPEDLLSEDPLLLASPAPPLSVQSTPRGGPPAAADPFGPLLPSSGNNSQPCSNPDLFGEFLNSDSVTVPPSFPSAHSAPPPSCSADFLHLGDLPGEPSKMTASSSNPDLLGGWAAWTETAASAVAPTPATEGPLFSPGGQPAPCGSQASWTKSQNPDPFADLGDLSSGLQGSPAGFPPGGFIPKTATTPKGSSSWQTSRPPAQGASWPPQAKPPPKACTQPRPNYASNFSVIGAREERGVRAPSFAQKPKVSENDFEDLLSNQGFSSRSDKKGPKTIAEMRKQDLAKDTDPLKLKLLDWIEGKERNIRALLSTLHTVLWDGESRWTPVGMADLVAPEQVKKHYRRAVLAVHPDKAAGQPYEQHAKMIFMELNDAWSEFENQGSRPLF

[3] = target: Tyrosine-protein kinase FRK ; FRK ; P42685 (Homo sapiens, UniProt P42685); parameters: species or system mixed lysate of K562, MV4-11, THP-1, NCI-H1155; settings: DIA-MS residual binding; binder
Chain of Tyrosine-protein kinase FRK ; FRK ; P42685 (P42685 whole entry): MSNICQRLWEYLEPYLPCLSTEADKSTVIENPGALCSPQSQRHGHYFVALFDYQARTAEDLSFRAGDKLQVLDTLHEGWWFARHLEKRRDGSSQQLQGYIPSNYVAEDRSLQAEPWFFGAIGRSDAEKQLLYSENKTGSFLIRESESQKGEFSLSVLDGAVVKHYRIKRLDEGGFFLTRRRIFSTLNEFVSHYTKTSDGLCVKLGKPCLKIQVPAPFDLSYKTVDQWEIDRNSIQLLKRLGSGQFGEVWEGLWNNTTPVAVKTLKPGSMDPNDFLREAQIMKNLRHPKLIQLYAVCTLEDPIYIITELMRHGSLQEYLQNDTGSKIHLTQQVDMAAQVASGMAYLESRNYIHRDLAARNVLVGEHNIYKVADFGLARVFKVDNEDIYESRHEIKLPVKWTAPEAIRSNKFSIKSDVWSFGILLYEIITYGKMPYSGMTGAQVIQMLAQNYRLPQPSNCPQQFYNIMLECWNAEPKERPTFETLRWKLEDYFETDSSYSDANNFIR

[4] = target: Tyrosine-protein kinase Lyn ; LYN ; P07948 (Homo sapiens, UniProt P07948); parameters: species or system mixed lysate of K562, MV4-11, THP-1, NCI-H1155; settings: DIA-MS residual binding; binder
Chain of Tyrosine-protein kinase Lyn ; LYN ; P07948 (P07948 whole entry): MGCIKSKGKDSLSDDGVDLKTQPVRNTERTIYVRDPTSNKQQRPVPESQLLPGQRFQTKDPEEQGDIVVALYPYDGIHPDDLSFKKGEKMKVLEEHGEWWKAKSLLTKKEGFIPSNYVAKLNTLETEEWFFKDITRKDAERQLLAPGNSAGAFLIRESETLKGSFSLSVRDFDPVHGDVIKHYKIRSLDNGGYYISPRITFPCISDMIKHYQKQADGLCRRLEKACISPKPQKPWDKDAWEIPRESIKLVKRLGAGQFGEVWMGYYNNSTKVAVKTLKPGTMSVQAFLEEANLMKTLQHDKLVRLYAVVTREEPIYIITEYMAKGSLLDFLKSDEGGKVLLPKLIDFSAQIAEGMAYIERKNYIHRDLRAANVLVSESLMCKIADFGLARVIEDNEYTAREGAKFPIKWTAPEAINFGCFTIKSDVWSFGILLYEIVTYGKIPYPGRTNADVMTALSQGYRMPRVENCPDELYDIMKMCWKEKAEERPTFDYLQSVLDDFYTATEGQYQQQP

[5] = target: Tyrosine-protein kinase HCK ; HCK ; P08631 (Homo sapiens, UniProt P08631); parameters: species or system mixed lysate of K562, MV4-11, THP-1, NCI-H1155; settings: DIA-MS residual binding; binder
Chain of Tyrosine-protein kinase HCK ; HCK ; P08631 (P08631 whole entry): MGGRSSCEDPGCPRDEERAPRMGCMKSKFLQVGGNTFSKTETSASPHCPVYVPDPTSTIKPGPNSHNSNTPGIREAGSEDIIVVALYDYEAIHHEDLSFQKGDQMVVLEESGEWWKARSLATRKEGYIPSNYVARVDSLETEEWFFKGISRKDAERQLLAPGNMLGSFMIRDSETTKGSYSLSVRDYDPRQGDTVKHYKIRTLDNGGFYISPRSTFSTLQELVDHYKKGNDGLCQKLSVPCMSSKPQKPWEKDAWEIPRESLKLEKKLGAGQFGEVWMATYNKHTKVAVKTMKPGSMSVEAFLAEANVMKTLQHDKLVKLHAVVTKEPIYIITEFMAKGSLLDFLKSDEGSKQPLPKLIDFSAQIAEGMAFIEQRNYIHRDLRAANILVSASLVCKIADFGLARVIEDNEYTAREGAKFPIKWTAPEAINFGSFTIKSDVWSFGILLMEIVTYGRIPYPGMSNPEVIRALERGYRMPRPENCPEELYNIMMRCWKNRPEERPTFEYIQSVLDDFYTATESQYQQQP

[6] = target: T2, Dual specificity mitogen-activated protein kinase kinase 3 ; MAP2K3 ; P46734 (Homo sapiens, UniProt P46734); parameters: species or system mixed lysate of K562, MV4-11, THP-1, NCI-H1155; settings: DIA-MS residual binding; binder
T2 sequence (P46734 1-347): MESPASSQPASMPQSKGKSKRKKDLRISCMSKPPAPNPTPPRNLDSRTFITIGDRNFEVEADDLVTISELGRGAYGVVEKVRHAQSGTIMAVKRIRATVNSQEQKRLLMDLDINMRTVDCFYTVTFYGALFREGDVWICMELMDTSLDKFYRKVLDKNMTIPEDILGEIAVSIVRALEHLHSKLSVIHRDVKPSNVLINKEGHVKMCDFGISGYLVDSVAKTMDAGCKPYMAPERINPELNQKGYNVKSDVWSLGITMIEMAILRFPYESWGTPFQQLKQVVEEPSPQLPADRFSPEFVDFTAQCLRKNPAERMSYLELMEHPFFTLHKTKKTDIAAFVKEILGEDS

[7] = target: T1, Cyclin-G-associated kinase ; GAK ; O14976; parameters: species or system mixed lysate of K562, MV4-11, THP-1, NCI-H1155; settings: DIA-MS residual binding; binder
[8] = read-out: BAY-1251152 (10 µM) / %Intensity relative to DMSO
[9] = read-out: BAY-1143572 (10 µM) / %Intensity relative to DMSO

Chain of Mitogen-activated protein kinase kinase kinase kinase 2 ; MAP4K2 ; Q12851 (Q12851 whole entry): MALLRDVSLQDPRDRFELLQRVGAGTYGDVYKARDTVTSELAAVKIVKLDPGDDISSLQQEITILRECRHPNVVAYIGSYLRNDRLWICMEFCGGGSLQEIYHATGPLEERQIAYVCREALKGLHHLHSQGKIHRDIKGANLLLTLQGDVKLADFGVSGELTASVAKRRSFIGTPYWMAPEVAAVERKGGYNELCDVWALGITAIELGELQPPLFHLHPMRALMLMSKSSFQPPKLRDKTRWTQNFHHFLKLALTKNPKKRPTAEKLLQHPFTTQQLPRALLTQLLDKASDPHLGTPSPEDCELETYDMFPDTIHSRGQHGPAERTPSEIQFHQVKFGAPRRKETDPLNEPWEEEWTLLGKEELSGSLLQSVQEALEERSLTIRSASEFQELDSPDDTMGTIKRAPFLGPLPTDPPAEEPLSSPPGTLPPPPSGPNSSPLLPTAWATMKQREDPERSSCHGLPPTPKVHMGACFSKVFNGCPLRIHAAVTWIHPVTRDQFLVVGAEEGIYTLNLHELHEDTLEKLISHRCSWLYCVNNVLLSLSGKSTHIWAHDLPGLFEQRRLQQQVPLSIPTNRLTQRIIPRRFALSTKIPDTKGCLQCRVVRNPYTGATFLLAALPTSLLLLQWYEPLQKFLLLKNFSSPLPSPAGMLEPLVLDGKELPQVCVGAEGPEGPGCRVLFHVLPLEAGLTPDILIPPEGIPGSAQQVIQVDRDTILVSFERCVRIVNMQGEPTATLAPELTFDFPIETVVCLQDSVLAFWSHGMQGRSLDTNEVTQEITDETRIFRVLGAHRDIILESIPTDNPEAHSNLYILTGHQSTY

remaining activity at 10 µM [1, 8]: 73.8%
remaining activity at 10 µM [2, 8]: 100%
SMILES: COc1cc(F)ccc1-c1cc(Nc2cc(CS(C)(=N)=O)ccn2)ncc1F (stereo not drawn) [BAY-1251152]

DIA-MS / % Intensity (30 µM/DMSO) [3]: 2.249%
DIA-MS / % Intensity (30 µM/DMSO) [4]: 11.5%
DIA-MS / % Intensity (30 µM/DMSO) [5]: 2.086%
DIA-MS / % Intensity (30 µM/DMSO) [6]: 55.82%
DIA-MS / % Intensity (30 µM/DMSO) [7]: 4.611%
SMILES: Cc1nc(Nc2ncc(C(=O)Nc3c(C)cccc3Cl)s2)cc(N2CCN(CCO)CC2)n1 [dasatinib]

remaining activity at 10 µM [1, 9]: 106%
remaining activity at 10 µM [2, 9]: 96.6%
SMILES: COc1cc(F)ccc1-c1ncnc(Nc2cccc(C[S@](C)(=N)=O)c2)n1 [BAY-1143572]
